Reference: publication PMC9250534, “Synthesis and direct assay of large macrocycle diversities by combinatorial late-stage modification at picomole scale” (Nature Communications, 2022)
Numbered stars: 1 amine (or outer) side, 2 acyl side, 3 side chain; on linkers, the order of the positions; unused ones are H or OH. Bridge positions count the residues as written; N and C are the ends. Square brackets hold non-standard residues; d marks the D form. Peptide text beside a SMILES is read from it. * marks the point of attachment. ξ: configuration not given here. Pro(4S-NHCO(5-Cl-2-thienyl)) = O=C(N[C@@H]1CN[C@H](C(=O)O)C1)c1ccc(Cl)s1; ξPro(4-NHCO(5-Cl-2-thienyl)) = O=C(NC1CNC(C(=O)O)C1)c1ccc(Cl)s1; 2Thenoyl(5-Cl) = O=C(c1ccc(Cl)s1)*; Cysteamide = C(CS[*:3])N[*:1]; Api = NC1(C(=O)O)CCNCC1; Orn = NCCC[CH](N)C(=O)O; Dap = NC[C@H](N)C(=O)O; Mpa = O=C(O)CCS

Molecular target: T1, thrombin (Homo sapiens, UniProt P00734)
T1 construct: consists of two polypeptide chains of 36 (light chain) and 259 amino acid
Assay: Thrombin inhibition screen of crude macrocycle reactions (residual thrombin activity, fluorogenic substrate Z-Gly-Gly-Arg-AMC)
Type: biochemical
Conditions: 10 µM macrocycle concentration, macrocycles containing acid 14, crude reaction; for % thrombin activity, Repeat screen: replicate reaction and screen
Procedure, shortened: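 Each crude macrocycle (10 μM) was preincubated 10 min at room temperature with thrombin (2 nM final) in Tris-Cl pH 7.4 containing NaCl, MgCl2, CaCl2, 0.1% BSA, 0.01% Triton X-100 and 0.6% DMSO. Z-Gly-Gly-Arg-AMC (50 μM final) was then added. Inhibition came from fluorescence slopes relative to DMSO-only controls.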

## O=C(NCCCC[C@@H]1NC(=O)[C@@H]2CCCN2C(=O)CCSSCCNC(=O)[C@@H](Cc2ccc(O)cc2)NC1=O)c1ccc(Cl)s1 [X B1 D1 y] ([Mpa]PK(2Thenoyl(5-Cl))[dY]-Cysteamide; disulfide 1-C)
  % thrombin activity, Original screen: 103.7%
  % thrombin activity, Repeat screen: 108.0%

## O=C(NC[C@@H]1NC(=O)[C@@H]2CCCN2C(=O)CCSSCCNC(=O)[C@@H](Cc2ccccc2)NC1=O)c1ccc(Cl)s1 [X B1 D3 f] ([Mpa]P[Dap](2Thenoyl(5-Cl))[dF]-Cysteamide; disulfide 1-C)
  % thrombin activity, Original screen: 86.2%
  % thrombin activity, Repeat screen: 88.2%

## NC(=O)CC[C@@H]1NC(=O)[C@@H]2C[C@H](NC(=O)c3ccc(Cl)s3)CN2C(=O)[C@@H]2CCCN2C(=O)CCSSCCNC1=O [X B1 D5 Q] ([Mpa]P[Pro(4S-NHCO(5-Cl-2-thienyl))]Q-Cysteamide; disulfide 1-C)
  % thrombin activity, Original screen: 96.1%
  % thrombin activity, Repeat screen: 98.4%

## O=C1NCCSSCCC(=O)N2CCC[C@H]2C(=O)NC2(CCN(C(=O)c3ccc(Cl)s3)CC2)C(=O)N[C@H]1Cc1c[nH]cn1 [X B1 D6 H] ([Mpa]P[Api](2Thenoyl(5-Cl))H-Cysteamide; disulfide 1-C)
  % thrombin activity, Original screen: 90.0%
  % thrombin activity, Repeat screen: 94.0%

## NC(=O)CC[C@@H]1NC(=O)C2(CCN(C(=O)c3ccc(Cl)s3)CC2)NC(=O)[C@@H]2CCCN2C(=O)CCSSCCNC1=O [X B1 D6 Q] ([Mpa]P[Api](2Thenoyl(5-Cl))Q-Cysteamide; disulfide 1-C)
  % thrombin activity, Original screen: 91.7%
  % thrombin activity, Repeat screen: 93.5%

## CC(C)CC1NC(=O)C2CCCN2C(=O)CCSSCCNC(=O)C2CC(NC(=O)c3ccc(Cl)s3)CN2C1=O (stereo not drawn) [X B1 L D5] ([Mpa]PL[ξPro(4-NHCO(5-Cl-2-thienyl))]-Cysteamide; disulfide 1-C; configuration not given here)
  % thrombin activity, Original screen: 94.2%
  % thrombin activity, Repeat screen: 99.9%

## NC(=O)CCC1NC(=O)C2CCCN2C(=O)CCSSCCNC(=O)C(CCCNC(=O)c2ccc(Cl)s2)NC1=O (stereo not drawn) [X B1 Q D2] ([Mpa]PQ[Orn](2Thenoyl(5-Cl))-Cysteamide; disulfide 1-C; configuration not given here)
  % thrombin activity, Original screen: 92.6%
  % thrombin activity, Repeat screen: 89.5%

## O=C1NC2(CCN(C(=O)c3ccc(Cl)s3)CC2)C(=O)NCCSSCCC(=O)N2CCCC2C(=O)NC1Cc1c[nH]c2ccccc12 (stereo not drawn) [X B1 w D6] ([Mpa]PW[Api](2Thenoyl(5-Cl))-Cysteamide; disulfide 1-C; configuration not given here)
  % thrombin activity, Original screen: 94.1%
  % thrombin activity, Repeat screen: 97.2%

## O=C1CCSSCCNC(=O)[C@H](CO)NC(=O)[C@H](CNC(=O)c2ccc(Cl)s2)NC(=O)CCN1 [X B2 D3 S]
  % thrombin activity, Original screen: 83.8%
  % thrombin activity, Repeat screen: 76.6%
Listed as X B2 D3 s
  % thrombin activity, Original screen: 102.4%
  % thrombin activity, Repeat screen: 99.4%

## O=C1CCSSCCNC(=O)[C@@H](Cc2c[nH]c3ccccc23)NC(=O)[C@@H](CNC(=O)c2ccc(Cl)s2)NC(=O)CCN1 [X B2 D4 w]
  % thrombin activity, Original screen: 88.8%
  % thrombin activity, Repeat screen: 91.0%

## O=C1CCSSCCNC(=O)C(Cc2c[nH]c3ccccc23)NC(=O)C2CC(NC(=O)c3ccc(Cl)s3)CN2C(=O)CCN1 (stereo not drawn) [X B2 D5 w]
  % thrombin activity, Original screen: 95.8%
  % thrombin activity, Repeat screen: 101.8%

## O=C1CCSSCCNC(=O)[C@H](CNC(=O)c2ccc(Cl)s2)NC(=O)[C@H](Cc2ccccc2)NC(=O)CCN1 [X B2 F D3]
  % thrombin activity, Original screen: 34.0%
  % thrombin activity, Repeat screen: 33.5%

## O=C1CCSSCCNC(=O)C2(CCN(C(=O)c3ccc(Cl)s3)CC2)NC(=O)[C@H](Cc2c[nH]cn2)NC(=O)CCN1 [X B2 H D6]
  % thrombin activity, Original screen: 96.8%
  % thrombin activity, Repeat screen: 101.7%

## O=C1CCSSCCNC(=O)[C@@H](CNC(=O)c2ccc(Cl)s2)NC(=O)[C@H](Cc2c[nH]c3ccccc23)NC(=O)CCN1 [X B2 W D4]
  % thrombin activity, Original screen: 61.5%
  % thrombin activity, Repeat screen: 68.8%

## C[C@H]1NC(=O)CCNC(=O)CCSSCCNC(=O)C2(CCN(C(=O)c3ccc(Cl)s3)CC2)NC1=O [X B2 a D6]
  % thrombin activity, Original screen: 96.5%
  % thrombin activity, Repeat screen: 92.7%

## O=C1CCSSCCNC(=O)C(Cc2ccccc2)NC(=O)C(CNC(=O)c2ccc(Cl)s2)NC(=O)c2ccc(cc2)CN1 (stereo not drawn) [X B3 D3 f]
  % thrombin activity, Original screen: 91.1%
  % thrombin activity, Repeat screen: 96.6%

## O=C1CCSSCCNC(=O)C(CNC(=O)c2ccc(Cl)s2)NC(=O)C(Cc2ccccc2)NC(=O)c2ccc(cc2)CN1 (stereo not drawn) [X B3 F D3]
  % thrombin activity, Original screen: 62.7%
  % thrombin activity, Repeat screen: 59.9%

## CC(C)C[C@@H]1NC(=O)c2ccc(cc2)CNC(=O)CCSSCCNC(=O)C2(CCN(C(=O)c3ccc(Cl)s3)CC2)NC1=O [X B3 L D6]
  % thrombin activity, Original screen: 91.2%
  % thrombin activity, Repeat screen: 94.4%

## CC(C)[C@@H]1NC(=O)c2ccc(cc2)CNC(=O)CCSSCCNC(=O)[C@H](CCCCNC(=O)c2ccc(Cl)s2)NC1=O [X B3 V D1]
  % thrombin activity, Original screen: 102.1%
  % thrombin activity, Repeat screen: 107.7%

## O=C1CCSSCCNC(=O)[C@H](CCCCNC(=O)c2ccc(Cl)s2)NC(=O)[C@@H](Cc2ccc(O)cc2)NC(=O)c2ccc(cc2)CN1 [X B3 y D1]
  % thrombin activity, Original screen: 106.6%
  % thrombin activity, Repeat screen: 108.9%

## O=C1CCSSCCNC(=O)[C@H](CNC(=O)c2ccc(Cl)s2)NC(=O)[C@@H](Cc2ccc(O)cc2)NC(=O)c2ccc(cc2)CN1 [X B3 y D3]
  % thrombin activity, Original screen: 88.0%
  % thrombin activity, Repeat screen: 89.2%

## O=C(NCCCCC1NC(=O)C2CCCN(C2)C(=O)CCSSCCNC(=O)C(CO)NC1=O)c1ccc(Cl)s1 (stereo not drawn) [X B4 D1 S]
  % thrombin activity, Original screen: 96.9%
  % thrombin activity, Repeat screen: 99.9%

## CCC(C)C1NC(=O)C(CNC(=O)c2ccc(Cl)s2)NC(=O)C2CCCN(C2)C(=O)CCSSCCNC1=O (stereo not drawn) [X B4 D3 I]
  % thrombin activity, Original screen: 64.0%
  % thrombin activity, Repeat screen: 61.8%

## CC(C)[C@@H]1NC(=O)[C@H](CNC(=O)c2ccc(Cl)s2)NC(=O)[C@H]2CCCN(C2)C(=O)CCSSCCNC1=O [X B4 D3 V]
  % thrombin activity, Original screen: 62.4%
  % thrombin activity, Repeat screen: 58.2%

## O=C1NC2(CCN(C(=O)c3ccc(Cl)s3)CC2)C(=O)N[C@@H](CO)C(=O)NCCSSCCC(=O)N2CCC[C@H]1C2 [X B4 D6 S]
  % thrombin activity, Original screen: 87.7%
  % thrombin activity, Repeat screen: 85.3%

## CC(C)C[C@@H]1NC(=O)[C@H]2CCCN(C2)C(=O)CCSSCCNC(=O)[C@@H](CNC(=O)c2ccc(Cl)s2)NC1=O [X B4 L D4]
  % thrombin activity, Original screen: 97.0%
  % thrombin activity, Repeat screen: 93.7%

## NC(=O)CC[C@@H]1NC(=O)[C@H]2CCCN(C2)C(=O)CCSSCCNC(=O)C2(CCN(C(=O)c3ccc(Cl)s3)CC2)NC1=O [X B4 Q D6]
  % thrombin activity, Original screen: 93.8%
  % thrombin activity, Repeat screen: 99.5%

## O=C(NCCCC[C@@H]1NC(=O)[C@H](Cc2c[nH]c3ccccc23)NC(=O)[C@H]2CCCN(C2)C(=O)CCSSCCNC1=O)c1ccc(Cl)s1 [X B4 W D1]
  % thrombin activity, Original screen: 84.9%
  % thrombin activity, Repeat screen: 86.6%
Listed as X B4 w D1
  % thrombin activity, Original screen: 105.6%
  % thrombin activity, Repeat screen: 113.0%

## O=C(NC[C@H]1NC(=O)[C@@H](CO)NC(=O)[C@H]2CCCN(C2)C(=O)CCSSCCNC1=O)c1ccc(Cl)s1 [X B4 s D4]
  % thrombin activity, Original screen: 104.5%
  % thrombin activity, Repeat screen: 106.7%

## CC[C@H](C)[C@@H]1NC(=O)[C@H](CCCNC(=O)c2ccc(Cl)s2)NC(=O)c2cccc(c2)CNC(=O)CCSSCCNC1=O [X B5 D2 I]
  % thrombin activity, Original screen: 86.0%
  % thrombin activity, Repeat screen: 83.0%

## O=C1CCSSCCNC(=O)C(Cc2ccccc2)NC(=O)C2CC(NC(=O)c3ccc(Cl)s3)CN2C(=O)c2cccc(c2)CN1 (stereo not drawn) [X B5 D5 f]
  % thrombin activity, Original screen: 91.3%
  % thrombin activity, Repeat screen: 95.8%

## O=C1CCSSCCNC(=O)C(Cc2c[nH]c3ccccc23)NC(=O)C2CC(NC(=O)c3ccc(Cl)s3)CN2C(=O)c2cccc(c2)CN1 (stereo not drawn) [X B5 D5 w]
  % thrombin activity, Original screen: 112.0%
  % thrombin activity, Repeat screen: 122.3%

## NC(=O)CC[C@@H]1NC(=O)C2(CCN(C(=O)c3ccc(Cl)s3)CC2)NC(=O)c2cccc(c2)CNC(=O)CCSSCCNC1=O [X B5 D6 Q]
  % thrombin activity, Original screen: 54.9%
  % thrombin activity, Repeat screen: 55.7%

## C[C@H]1NC(=O)C2(CCN(C(=O)c3ccc(Cl)s3)CC2)NC(=O)c2cccc(c2)CNC(=O)CCSSCCNC1=O [X B5 D6 a]
  % thrombin activity, Original screen: 86.2%
  % thrombin activity, Repeat screen: 89.2%
